The test system of the first test is Human umbilical endothelial cells (HUVEC). The test can be described thus: Inhibition of VEGF165-stimulated HUVEC proliferation (3H-thymidine incorporation). The note with it: HUVEC proliferation stimulated with 5 ng/ml VEGF165 and 10 μg/ml heparin; 76 h incubation + 16 h 3H-thymidine. The test is classed as cell-based. The protocol:
Human umbilical endothelial cells (HUVEC) were cultivated in IMDM (Gibco BRL), supplemented with 10% foetal calf serum (FBS) (Sigma), 50 μM of β-mercaptoethanol (Fluka), standard antibiotics, 15 μg/ml of endothelial cell growth factor (ECGS, Collaborative Biomedical Products) and 100 μg/ml of heparin (Sigma) on gelatine-coated culture dishes (0.2% gelatine, Sigma) at 37° C., under 5% CO2 in a water-saturated atmosphere.
In order to investigate the inhibitory activity of the compounds according to the invention the cells were “starved” for 16 hours, i.e. kept in culture medium without growth factors (ECGS+heparin). The cells were detached from the culture dishes using trypsin/EDTA and washed once in serum-containing medium. Then they were seeded out in amounts of 2.5×10^3 cells per well.
The proliferation of the cells was stimulated with 5 ng/ml of VEGF165 (vascular endothelial growth factor; H. Weich, GBF Braunschweig) and 10 μg/ml of heparin. As a control, 6 wells in each dish were not stimulated.
The compounds according to the invention were dissolved in 100% dimethylsulphoxide and added to the cultures in various dilutions as triple measurements, the maximum dimethylsulphoxide concentration being 0.3%.
The cells were incubated for 76 hours at 37° C., then for a further 16 hours ^3H-thymidine (0.1 μCi/well, Amersham) was added in order to determine the DNA synthesis. Then the radioactively labelled cells were immobilised on filter mats and the radioactivity incorporated was measured in a β-counter. In order to determine the inhibitory activity of the compounds according to the invention the mean value of the non-stimulated cells was subtracted from the mean value of the factor-stimulated cells (in the presence or absence of the compounds according to the invention).
The relative cell proliferation was calculated as a percentage of the control (HUVEC without inhibitor) and the concentration of active substance which inhibits the proliferation of the cells by 50% (IC50) was determined.
With “3-(Z)-{1-(4-[N-acetyl-N-(2-dimethylaminoethyl)-amino]-phenylamino)-1-(3,4-(difluoromethylenedioxy)phenyl)-methylene}-6-chloro-2-indolinone [(al)]”, the IC50 turned out to be 83 nM.
Still for that read-out and setting: the result for `Cn1cnc2cc(/C(Nc3ccc(N4CCCC4=O)cc3)=C3/C(=O)Nc4cc(F)ccc43)ccc21` [(as), 3-(Z)-{1-[4-(pyrrolid-2-on-1-yl)-phenylamino]-1-(1-methyl-benzimidazol-5-yl)-methylene}-6-fluoro-2-indolinone] reads 18 nM; that for `CN(C)CCN(c1ccc(N/C(=C2\C(=O)Nc3cc(Cl)ccc32)c2ccc3c(c2)OCCO3)cc1Cl)S(C)(=O)=O` [(ba), 6-chloro-3-(Z)-[1-(4-{N-(2-dimethylamino-ethyl)-N-methanesulphonyl-amino}-3-chloro-phenylamino)-1-(1,2-ethylenedioxyphen-4-yl)-methylene]-2-indolinone], 30 nM.
On the same count and under the same terms, then `COc1cc(N/C(=C2\C(=O)Nc3cc(Cl)ccc32)c2ccc3c(c2)OCCO3)ccc1N(C)C(=O)CN(C)C` [(bb), 6-chloro-3-(Z)-{1-[4-(N-dimethylaminomethylcarbonyl-N-methyl-amino)-3-methoxy-phenylamino]-1-(1,2-ethylenedioxyphen-4-yl)-methylene}-2-indolinone], with 33 nM; and `COc1cc(N/C(=C2\C(=O)Nc3cc(F)ccc32)c2ccc3c(c2)OCCO3)ccc1N(C)C(=O)CN(C)C` [(bc), 6-fluoro-3-(Z)-{1-[4-(N-dimethylaminomethylcarbonyl-N-methyl-amino)-3-methoxy-phenylamino]-1-(1,2-ethylenedioxyphen-4-yl)-methylene}-2-indolinone], with 5 nM.

The test is the same for the next values; noted with them: Homo sapiens; HUVEC proliferation stimulated with 5 ng/ml VEGF165 and 10 μg/ml heparin; 76 h incubation + 16 h 3H-thymidine.
As for `CN(C)Cc1ccc(N/C(=C2\C(=O)Nc3cc(Cl)ccc32)c2ccc3c(c2)OCO3)cc1` [(a), 3-(Z)-{1-[4-(dimethylaminomethyl)-phenylamino]-1-(3,4-methylenedioxyphenyl)-methylene}-6-chloro-2-indolinone], the IC50 came to 11 nM.
For the compound `CCC(=O)N(CCN(C)C)c1ccc(N/C(=C2\C(=O)Nc3cc(F)ccc32)c2ccc3c(c2)OCCO3)cc1` [(aa), 3-(Z)-{1-(4-[N-propionyl-N-(2-dimethylaminoethyl)-amino]-phenylamino)-1-(3,4-ethylenedioxyphenyl)-methylene}-6-fluoro-2-indolinone], the IC50 came out at 0.6 nM.
On the same count and under the same terms, then `CN(C)CCN(c1ccc(N/C(=C2\C(=O)Nc3cc(F)ccc32)c2ccc3c(c2)OCCO3)cc1)S(C)(=O)=O` [(ab), 3-(Z)-{1-(4-[N-methanesulphonyl-N-(2-dimethylaminoethyl)-amino]-phenylamino)-1-(3,4-ethylenedioxyphenyl)-methylene}-6-fluoro-2-indolinone], with 1 nM; and `COC(=O)c1ccc2c(c1)NC(=O)/C2=C(\Nc1ccc(N(CCN(C)C)C(C)=O)cc1)c1ccc2c(c1)OCCO2` [(ac), 3-(Z)-{1-(4-[N-acetyl-N-(2-dimethylaminoethyl)-amino]-phenylamino)-1-(3,4-ethylenedioxyphenyl)-methylene}-6-methoxycarbonyl-2-indolinone], with 0.2 nM.
Still for that read-out and setting: the result for `COC(=O)c1ccc2c(c1)NC(=O)/C2=C(\Nc1ccc(C(=O)N(C)CCN(C)C)cc1)c1ccc2c(c1)OCCO2` [(ad), 3-(Z)-{1-(4-[N-methyl-N-(2-dimethylaminoethyl)aminocarbonyl]-phenylamino)-1-(3,4-ethylenedioxyphenyl)-methylene}-6-methoxycarbonyl-2-indolinone] reads 0.4 nM; that for `COC(=O)c1ccc2c(c1)NC(=O)/C2=C(\Nc1ccc(C(=O)N(C)CCCN(C)C)cc1)c1ccc2c(c1)OCCO2` [(ae), 3-(Z)-{1-(4-[N-methyl-N-(3-dimethylaminopropyl)aminocarbonyl]-phenylamino)-1-(3,4-ethylenedioxyphenyl)-methylene}-6-methoxycarbonyl-2-indolinone], 0.5 nM.
The same measure, in the same setting: the result for `COC(=O)c1ccc2c(c1)NC(=O)/C2=C(\Nc1ccc(C(=O)N(C)CCN(C)C)cc1)c1ccc2c(c1)OCO2` [(af), 3-(Z)-{1-(4-[N-methyl-N-(2-dimethylaminoethyl)aminocarbonyl]-phenylamino)-1-(3,4-methylenedioxyphenyl)-methylene}-6-methoxycarbonyl-2-indolinone] reads 0.5 nM; that for `CN1CCN(Cc2ccc(N/C(=C3\C(=O)Nc4cc(C(=O)N(C)C)ccc43)c3ccc4c(c3)OCCO4)cc2)CC1` [(ah), 3-(Z)-{1-(4-[1-methyl-piperazin-4-yl-methyl]-phenylamino)-1-(3,4-ethylenedioxy-phenyl)-methylene}-6-dimethylaminocarbonyl-2-indolinone], 100 nM; that for `CN1CCC(N(C)C(=O)c2ccc(N/C(=C3\C(=O)Nc4cc(F)ccc43)c3ccc4c(c3)OCCO4)cc2)CC1` [(am), 3-(Z)-{1-(4-[N-methyl-N-(1-methyl-4-piperidinyl)-aminocarbonyl]-phenylamino)-1-(3,4-ethylenedioxyphenyl)-methylene}-6-fluoro-2-indolinone], 5 nM.
In the case of `CN(C)CC(=O)N(C)c1ccc(N/C(=C2\C(=O)Nc3ccccc32)c2ccoc2)cc1` [(an), 3-(Z)-{1-(4-[N-methyl-N-(dimethylaminomethylcarbonyl)-amino]-phenylamino)-1-(3-furyl)-methylene}-2-indolinone], the IC50 was determined as 58 nM.
`CN(C)CCN(C(=O)c1cccnc1)c1ccc(N/C(=C2\C(=O)Nc3cc(Cl)ccc32)c2ccc3c(c2)OCO3)cc1` [(ao), 3-(Z)-{1-(4-[N-(3-pyridylcarbonyl)-N-(2-dimethylaminoethyl)-amino]-phenyl-amino)-1-(3,4-methylenedioxyphenyl)-methylene}-6-chloro-2-indolinone]: the IC50 worked out at 6 nM.
Same read-out and setting: the result for `CCN(CC)CCS(=O)(=O)c1ccc(N/C(=C2\C(=O)Nc3cc(Cl)ccc32)c2ccc3c(c2)OCO3)cc1` [(ap), 3-(Z)-{1-(4-[2-(diethylamino)ethyl-sulphonyl]-phenylamino)-1-(3,4-methylenedioxyphenyl)-methylene}-6-chloro-2-indolinone] reads 120 nM.
For the compound `CN(C)Cc1ccc(N/C(=C2\C(=O)Nc3ccccc32)c2ccc3c(c2)ncn3C)cc1` [(aq), 3-(Z)-{1-[4-(dimethylaminomethyl)-phenylamino]-1-(1-methyl-benzimidazol-5-yl)-methylene}-2-indolinone], the IC50 came to 24 nM.
Regarding `Cn1ccnc1-c1ccc(N/C(=C2\C(=O)Nc3cc(Cl)ccc32)c2ccc3nccnc3c2)cc1` [(ar), 3-(Z)-{1-(4-[1-methylimidazol-2-yl]-phenylamino)-1-(quinoxalin-6-yl)-methylene}-6-chloro-2-indolinone], the IC50 came out at 71 nM.
On the same count and under the same terms, then `Cc1cc(C)n(-c2ccc(N/C(=C3\C(=O)Nc4cc(F)ccc43)c3ccc4c(c3)ncn4C)cc2)n1` [(at), 3-(Z)-{1-[4-(3,5-dimethyl-pyrazol-1-yl)-phenylamino]-1-(1-methyl-benzimidazol-5-yl)-methylene}-6-fluoro-2-indolinone], with 30 nM.
On the same count and under the same terms, the result for `CN(C)CCN(C)S(=O)(=O)c1ccc(N/C(=C2\C(=O)Nc3cc(F)ccc32)c2ccc3c(c2)ncn3C)cc1` [(au), 3-(Z)-{1-[4-(N-methyl-N-{2-dimethylamino-ethyl}-aminosulphonyl)-phenylamino]-1-(1-methyl-benzimidazol-5-yl)-methylene}-6-fluoro-2-indolinone] reads 13 nM.
The same measure, in the same setting: the result for `CN(C)Cc1ccc(N/C(=C2\C(=O)Nc3ccccc32)c2ccc3c(c2)nnn3C)cc1` [(av), 3-(Z)-{1-[4-(dimethylaminomethyl)-phenylamino]-1-(1-methyl-benzotriazol-5-yl)-methylene}-2-indolinone] reads 94 nM; that for `CN1CCN(C(=O)Cc2ccc(N/C(=C3\C(=O)Nc4cc(F)ccc43)c3ccc4c(c3)OCCO4)cc2)CC1` [(aw), 3-(Z)-{1-(4-[(1-methyl-piperazin-4-yl)-carbonylmethyl]-phenylamino)-1-(3,4-ethylenedioxyphenyl)-methylene}-6-fluoro-2-indolinone], 4 nM; that for `CN1CCN(CC(=O)N(C)c2ccc(N/C(=C3\C(=O)Nc4cc(Cl)ccc43)c3ccc4c(c3)OCO4)cc2)CC1` [(az), 3-(Z)-{1-(4-[N-methyl-N-(4-methylpiperazin-1-yl-methylcarbonyl)-amino]-phenyl-amino)-1-(3,4-methylenedioxyphenyl)-methylene}-6-chloro-2-indolinone], 6 nM.
For the compound `CN1CCN(CC(=O)N(C)c2ccc(N/C(=C3\C(=O)Nc4cc(Cl)ccc43)c3ccc4nccnc4c3)cc2)CC1` [(b), 3-(Z)-{1-(4-[N-methyl-N-(4-methylpiperazin-1-yl-methylcarbonyl)-amino]-phenyl-amino)-1-(quinoxalin-6-yl)-methylene}-6-chloro-2-indolinone], the IC50 turned out to be 4 nM.

Values taken from patent US7148249B2, “Indolinones substituted by heterocycles, the preparation thereof and their use as medicaments” (Boehringer Ingelheim Pharma GmbH & Co. KG, priority 2002, dated 2006).
